Measurements reported in patent US7244734B2, “Hexa- and octahydro-pyrido[1,2-a]pyrazine derivatives with NK1 antagonistic activity” (Solvay Pharmaceuticals B.V., priority 2003, dated 2007).

Assays:
human NK1 receptor = target: T1, human NK1 receptor (Homo sapiens, UniProt P25103); test: Receptor binding for human NK1 receptors ([3H]-substance P displacement, CHO cell membranes); details: human NK1 receptor in CHO membranes, read-out: affinity NK-1 binding pKi (converted)
T1 construct: expressed in transfected cells; membranes
T1 sequence (P25103 whole entry): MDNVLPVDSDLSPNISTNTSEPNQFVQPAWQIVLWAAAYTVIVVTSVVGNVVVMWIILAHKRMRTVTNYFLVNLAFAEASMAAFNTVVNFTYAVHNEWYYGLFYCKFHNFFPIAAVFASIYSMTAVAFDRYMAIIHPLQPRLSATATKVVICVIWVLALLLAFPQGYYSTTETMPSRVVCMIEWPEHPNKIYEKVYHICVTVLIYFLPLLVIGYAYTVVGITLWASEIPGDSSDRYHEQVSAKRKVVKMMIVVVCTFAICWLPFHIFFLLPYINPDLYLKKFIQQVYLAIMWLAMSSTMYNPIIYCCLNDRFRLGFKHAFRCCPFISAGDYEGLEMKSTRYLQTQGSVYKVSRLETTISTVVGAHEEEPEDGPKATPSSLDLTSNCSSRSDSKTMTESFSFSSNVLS
Method: Receptor Binding for Human NK1 Receptors
Affinity of the compounds for human NK1 receptors was assessed using radio-receptor binding assays. Membrane preparations were prepared from Chinese Hamster Ovarium fibroblast (CHO) cells in which the human NK1 receptor was stably expressed. Membranes were incubated with [^3H]-substance P in the absence or the presence of specified concentrations of the compounds, diluted in a suitable buffer in presence of peptidase inhibitor for 10 min at 25° C. Separation of bound radioactivity from free was done by filtration over Whatman GF/B glass fiber filters with two 5 sec washings. Bound radioactivity was counted by liquid scintillation counting using a Betaplate counter. Measured radioactivity was plotted against the concentration of the displacing test compound and displacement curves were calculated by four-parameter logistic regression, resulting in IC50 values, i.e. that concentration of displacing compound by which 50% of the radioligand is displaced. Affinity pKI values were calculated by correcting the IC50 values for radioligand concentration and its affinity for the human NK1 receptor according to the Cheng-Prusoff equation: pKi=−log [IC50/(1+S/Kd)] in which the IC50 is as described above, S is the concentration [^3H]-substance P used in the assay expressed in mol/l, and Kd is the equilibrium dissociation constant of [^3H]-substance P for human NK1 receptors (in mol/l). cAMP Measurements

[1] = tested on: NK1 agonist-induced gerbil foot-tapping; test: NK1 agonist (GR 73632)-induced gerbil foot-tapping; details: Meriones unguiculatus, po, 60 min before anaesthesia; GR 73632 i.c.v.; male gerbils; read-out: In vivo antagonism Gerbil foot tapping p.o. ED50
Method: Concentration-response relationships were constructed by plotting cAMP conversion against compound concentration and IC50 values were calculated by four-parameter logistic regression. Antagonist potencies (pA2) values were calculated using: […] in which the IC50 of the test compound was obtained from concentration-effect relationships, [SP] is the concentration of substance P (in mol/l; typically 10 nM), and the EC50 is the potency of substance P at human cloned NK1 receptors. NK1 Agonist—Induced Gerbil Foot-Tapping
Therefore, we have used this model to assess the in vivo activity of the compounds of the invention.
60 min prior to anaesthesia with N2O (0.8 L/min), halothane (3%) and O2 (0.8 L/min) male gerbils (40-60 g; Charles River) received an injection of vehicle or test compound (p.o.). Upon successful narcosis the anaesthetic was adjusted to N2O (0.6 L/min), halothane (1.5%) and O2 (0.6 L/min) and a midline scalp incision made. GR 73632 was infused into the cerebroventricular space (AP−0.5 mm, L−1.2 mm, and vertical−4.5 mm from bregma). Following recovery from anaesthesia (about 3-4 min) the foot tapping response was recorded for 5 minutes. The predefined criterion for antagonism of this response was defined as inhibition of foot tapping for ≧5 min.

Row | SMILES | Ki (human NK1 receptor) [nM] | ED50 [1] [mg/kg]
1 | O=C(c1cc(C(F)(F)F)cc(C(F)(F)F)c1)N1C[C@H]2CCC(c3cncnc3)=CN2C[C@H]1Cc1c[nH]c2ccccc12 [Compound 4, (3R,9aR)-(3,5-bis(trifluoromethyl)phenyl)-[3-(1H-indol-3-ylmethyl)-7-pyrimidin-5-yl-1,3,4,8,9,9a-hexahydro-pyrido[1,2-a]pyrazin-2-yl]-methanone] | 7.94 | 
2 | O=C(c1cc(C(F)(F)F)cc(C(F)(F)F)c1)N1C[C@H]2CCC(c3cnccn3)=CN2C[C@H]1Cc1c[nH]c2ccccc12 [Compound 5, (3R,9aR)-(3,5-bis(trifluoromethyl)phenyl)-[3-(1H-indol-3-ylmethyl)-7-pyrazin-2-yl-1,3,4,8,9,9a-hexahydro-pyrido[1,2-a]pyrazin-2-yl]-methanone] | 2.51 | 
3 | O=C(c1cc(C(F)(F)F)cc(C(F)(F)F)c1)N1C[C@H]2CCC(c3ncccn3)=CN2C[C@H]1Cc1c[nH]c2ccccc12 [Compound 6, (3R,9aR)-(3,5-bis(trifluoromethyl)phenyl)-[3-(1H-indol-3-ylmethyl)-7-pyrimidin-2-yl-1,3,4,8,9,9a-hexahydro-pyrido[1,2-a]pyrazin-2-yl]-methanone] | 1.58 | 
4 | O=C(c1cc(C(F)(F)F)cc(C(F)(F)F)c1)N1C[C@H]2CCC(c3ccccn3)=CN2C[C@H]1Cc1c[nH]c2ccccc12 [Compound 3, (3R,9aR)-(3,5-bis(trifluoromethyl)phenyl)-[3-(1H-indol-3-ylmethyl)-7-pyridin-2-yl-1,3,4,8,9,9a-hexahydro-pyrido[1,2-a]pyrazin-2-yl]-methanone] | 3.16 | 2.2
5 | O=C(c1cc(C(F)(F)F)cc(C(F)(F)F)c1)N1C[C@H]2CCC(c3cccnc3)=CN2C[C@H]1Cc1c[nH]c2ccccc12 [Compound 2, (3R,9aR)-(3,5-bis(trifluoromethyl)phenyl)-[3-(1H-indol-3-ylmethyl)-7-pyridin-3-yl-1,3,4,8,9,9a-hexahydro-pyrido[1,2-a]pyrazin-2-yl]-methanone] | 20 | 
6 | O=C(c1cc(C(F)(F)F)cc(C(F)(F)F)c1)N1C[C@H]2CCC(c3ccncc3)=CN2C[C@H]1Cc1c[nH]c2ccccc12 [Compound 1, (3R,9aR)-(3,5-bis(trifluoromethyl)phenyl)-[3-(1H-indol-3-ylmethyl)-7-pyridin-4-yl-1,3,4,8,9,9a-hexahydro-pyrido[1,2-a]pyrazin-2-yl]-methanone] | 15.8 | 1.7
7 | O=C(c1cc(C(F)(F)F)cc(C(F)(F)F)c1)N1C[C@H]2CCC(c3nccs3)=CN2C[C@H]1Cc1c[nH]c2ccccc12 [Compound 7, (3R,9aR)-(3,5-bis(trifluoromethyl)phenyl)-[3-(1H-indol-3-ylmethyl)-7-thiazol-2-yl-1,3,4,8,9,9a-hexahydro-pyrido[1,2-a]pyrazin-2-yl]-methanone] | 0.631 | 3.4
